We go through two compounds from ChEMBL document CHEMBL4507327 (2021).

Series [1] addresses Delta-type opioid receptor (Homo sapiens) (UniProt P41143). Particulars: Compound concentration 10.0 uM; call rule not given here.
The target in series [2] is Beta-3 adrenergic receptor (Homo sapiens) (UniProt P13945). To be noted: Compound concentration 10.0 uM.
The species named for series [3] is Rattus norvegicus. The series is described as follows: Inhibition of Imidazoline I2, Central at 10 µM in the Eurofins-Panlabs radioligand binding assay (Eurofins_assay_241000). Particulars: Compound concentration 10.0 uM. Further details: ligand concentration 2 nM.
Series [4] addresses Histamine H2 receptor (Homo sapiens) (UniProt P25021). To be noted: Compound concentration 10.0 uM.
Series [5] addresses Acetylcholine receptor subunit alpha (Homo sapiens) (UniProt P02708). The series is described as follows: Inhibition of Nicotinic Acetylcholine D1, Bungarotoxin at 10 µM in the Eurofins-Panlabs radioligand binding assay (Eurofins_assay_258700). Particulars: Compound concentration 10.0 uM.
Series [6] has as its target 5-hydroxytryptamine receptor 2A (Homo sapiens) (UniProt P28223). Particulars: Compound concentration 10.0 uM.
For series [7], the species on record is Rattus norvegicus. To be noted: Compound concentration 10.0 uM.
For series [8], the target named is T1, Muscarinic acetylcholine receptor M2 (Homo sapiens) (UniProt P08172).
T1 sequence (whole entry): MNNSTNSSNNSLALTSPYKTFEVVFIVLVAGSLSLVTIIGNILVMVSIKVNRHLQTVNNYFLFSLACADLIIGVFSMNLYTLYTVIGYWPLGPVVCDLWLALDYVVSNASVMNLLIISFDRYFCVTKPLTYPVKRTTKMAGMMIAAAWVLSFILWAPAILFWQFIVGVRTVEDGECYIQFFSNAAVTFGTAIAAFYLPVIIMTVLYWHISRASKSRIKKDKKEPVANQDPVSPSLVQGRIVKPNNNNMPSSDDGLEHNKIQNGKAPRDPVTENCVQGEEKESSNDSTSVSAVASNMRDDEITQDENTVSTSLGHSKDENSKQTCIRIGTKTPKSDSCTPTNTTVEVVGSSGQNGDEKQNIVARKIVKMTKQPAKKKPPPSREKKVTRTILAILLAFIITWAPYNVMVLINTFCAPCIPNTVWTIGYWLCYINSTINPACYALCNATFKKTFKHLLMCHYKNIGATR
Particulars: Compound concentration 10.0 uM.

Series [9] can be described thus: GPCRScan assay: inhibition of GABA/PBR. Further details: species or system Rattus norvegicus; radioligand conc. used [nm] 0.3 – 2.0, parental cells brain tissue.
The target of series [10] is 5-hydroxytryptamine receptor 6 (Homo sapiens) (UniProt P50406). Particulars: Compound concentration 10.0 uM.
Series [11] addresses Alpha-1D adrenergic receptor (Homo sapiens) (UniProt P25100). To be noted: Compound concentration 10.0 uM.
The target of series [12] is D(4) dopamine receptor (Homo sapiens) (UniProt P21917). Particulars: Compound concentration 10.0 uM.
Series [13] addresses Alpha-2A adrenergic receptor (Homo sapiens) (UniProt P08913). Particulars: Compound concentration 10.0 uM.
Series [14] concerns the target Sodium-dependent serotonin transporter (Homo sapiens) (UniProt P31645). To be noted: Compound concentration 10.0 uM.
For series [15], the target named is Beta-1 adrenergic receptor (Homo sapiens) (UniProt P08588). To be noted: Compound concentration 10.0 uM.
In series [16] the target is Testis-specific serine/threonine-protein kinase 3 (Homo sapiens, UniProt Q96PN8). The series is described as follows: TSSK3(TSS3LGRM) Takeda global kinase panel.
Chain of Testis-specific serine/threonine-protein kinase 3 (Q96PN8 whole entry): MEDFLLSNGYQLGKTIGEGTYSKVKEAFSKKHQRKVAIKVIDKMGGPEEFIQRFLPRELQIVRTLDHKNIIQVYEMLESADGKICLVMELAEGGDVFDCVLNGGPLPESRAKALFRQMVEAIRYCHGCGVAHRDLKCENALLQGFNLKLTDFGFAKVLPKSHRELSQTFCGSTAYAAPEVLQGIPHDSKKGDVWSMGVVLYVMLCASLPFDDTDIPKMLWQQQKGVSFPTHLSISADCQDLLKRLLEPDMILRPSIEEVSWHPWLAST
In series [17] the target is Macrophage-stimulating protein receptor (Homo sapiens, UniProt Q04912). The series is described as follows: Ron(MST1MGY1) Takeda global kinase panel.
The target in series [18] is Epithelial discoidin domain-containing receptor 1 (Homo sapiens, UniProt Q08345). The series is described as follows: DDR1(DDR1LGF1) Takeda global kinase panel.
Series [19] addresses Calcium/calmodulin-dependent protein kinase type II subunit delta (Homo sapiens, UniProt Q13557). As to the kind of experiment: CaMK2delta(CA2DCGT1) Takeda global kinase panel.
Series [20] addresses cAMP-dependent protein kinase catalytic subunit alpha (Homo sapiens, UniProt P17612). As to the kind of experiment: PKAalpha(PRCALGH1) Takeda global kinase panel.
Series [21] addresses Angiopoietin-1 receptor (Homo sapiens, UniProt Q02763). As to the kind of experiment: TIE2(TEK1LGF1) Takeda global kinase panel.
Series [22] has as its target Ephrin type-A receptor 2 (Homo sapiens, UniProt P29317). The series is described as follows: EphA2(EPA2LGY1) Takeda global kinase panel.
In series [23] the target is voltage-gated sodium channel, site 2 (Rattus norvegicus, UniProt F1LQQ7+O08562+O88420+O88457+P04774+P04775+P08104+P15389+P15390+Q62968). As to the kind of experiment: Inhibition of Sodium Channel, Site 2 at 10 µM in the Eurofins-Panlabs radioligand binding assay (Eurofins_assay_279510). The series is classed as protein assay. Further details: ligand concentration 5 nM, non-specific ligand with concentration 100 µM Veratridine, incubation time 60 min, incubation temperature 37 °C. To be noted: male, Wistar, whole brain (except cerebellum) membranes of rats, probe [3H] Batrachotoxinin, compound concentration 10 uM.

The target in series [24] is Activin receptor type-1B (Homo sapiens, UniProt P36896). As to the kind of experiment: ALK4(AC1BLGF1) Takeda global kinase panel.
The target in series [25] is Fibroblast growth factor receptor 1 (Homo sapiens, UniProt P11362). As to the kind of experiment: FGFR1(FGF1LGF1) Takeda global kinase panel.
Chain of Fibroblast growth factor receptor 1 (P11362 whole entry): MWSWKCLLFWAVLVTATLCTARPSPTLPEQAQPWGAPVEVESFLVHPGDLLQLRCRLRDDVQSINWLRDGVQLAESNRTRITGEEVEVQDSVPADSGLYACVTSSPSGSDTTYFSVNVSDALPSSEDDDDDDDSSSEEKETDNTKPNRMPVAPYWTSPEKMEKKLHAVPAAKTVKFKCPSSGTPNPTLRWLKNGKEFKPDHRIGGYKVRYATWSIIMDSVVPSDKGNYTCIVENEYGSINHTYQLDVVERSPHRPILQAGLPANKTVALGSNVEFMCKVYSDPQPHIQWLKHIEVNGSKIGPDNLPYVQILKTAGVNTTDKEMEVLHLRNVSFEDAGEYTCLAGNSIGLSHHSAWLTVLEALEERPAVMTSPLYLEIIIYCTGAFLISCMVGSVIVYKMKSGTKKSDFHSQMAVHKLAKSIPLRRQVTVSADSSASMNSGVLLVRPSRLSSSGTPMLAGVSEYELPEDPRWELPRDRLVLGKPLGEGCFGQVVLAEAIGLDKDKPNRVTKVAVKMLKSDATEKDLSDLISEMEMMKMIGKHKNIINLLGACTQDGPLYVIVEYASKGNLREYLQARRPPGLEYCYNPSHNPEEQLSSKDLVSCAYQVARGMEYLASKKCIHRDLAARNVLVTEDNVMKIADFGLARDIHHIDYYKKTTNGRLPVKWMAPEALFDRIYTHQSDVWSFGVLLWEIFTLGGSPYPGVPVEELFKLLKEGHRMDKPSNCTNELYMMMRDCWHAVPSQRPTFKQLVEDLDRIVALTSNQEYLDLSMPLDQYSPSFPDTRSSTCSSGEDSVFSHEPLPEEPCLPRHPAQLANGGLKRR
Series [26] addresses Fibroblast growth factor receptor 2 (Homo sapiens, UniProt P21802). The series is described as follows: FGFR2(FGF2LGF1) Takeda global kinase panel.
Series [27] has as its target Leucine-rich repeat serine/threonine-protein kinase 2 (Homo sapiens, UniProt Q5S007). As to the kind of experiment: LRRK2(LRR2PGF1) Takeda global kinase panel.
Series [28] deals with Focal adhesion kinase 1 (Homo sapiens, UniProt Q05397). The series is described as follows: FAK(PTK2LGF1) Takeda global kinase panel.
Chain of Focal adhesion kinase 1 (Q05397 whole entry): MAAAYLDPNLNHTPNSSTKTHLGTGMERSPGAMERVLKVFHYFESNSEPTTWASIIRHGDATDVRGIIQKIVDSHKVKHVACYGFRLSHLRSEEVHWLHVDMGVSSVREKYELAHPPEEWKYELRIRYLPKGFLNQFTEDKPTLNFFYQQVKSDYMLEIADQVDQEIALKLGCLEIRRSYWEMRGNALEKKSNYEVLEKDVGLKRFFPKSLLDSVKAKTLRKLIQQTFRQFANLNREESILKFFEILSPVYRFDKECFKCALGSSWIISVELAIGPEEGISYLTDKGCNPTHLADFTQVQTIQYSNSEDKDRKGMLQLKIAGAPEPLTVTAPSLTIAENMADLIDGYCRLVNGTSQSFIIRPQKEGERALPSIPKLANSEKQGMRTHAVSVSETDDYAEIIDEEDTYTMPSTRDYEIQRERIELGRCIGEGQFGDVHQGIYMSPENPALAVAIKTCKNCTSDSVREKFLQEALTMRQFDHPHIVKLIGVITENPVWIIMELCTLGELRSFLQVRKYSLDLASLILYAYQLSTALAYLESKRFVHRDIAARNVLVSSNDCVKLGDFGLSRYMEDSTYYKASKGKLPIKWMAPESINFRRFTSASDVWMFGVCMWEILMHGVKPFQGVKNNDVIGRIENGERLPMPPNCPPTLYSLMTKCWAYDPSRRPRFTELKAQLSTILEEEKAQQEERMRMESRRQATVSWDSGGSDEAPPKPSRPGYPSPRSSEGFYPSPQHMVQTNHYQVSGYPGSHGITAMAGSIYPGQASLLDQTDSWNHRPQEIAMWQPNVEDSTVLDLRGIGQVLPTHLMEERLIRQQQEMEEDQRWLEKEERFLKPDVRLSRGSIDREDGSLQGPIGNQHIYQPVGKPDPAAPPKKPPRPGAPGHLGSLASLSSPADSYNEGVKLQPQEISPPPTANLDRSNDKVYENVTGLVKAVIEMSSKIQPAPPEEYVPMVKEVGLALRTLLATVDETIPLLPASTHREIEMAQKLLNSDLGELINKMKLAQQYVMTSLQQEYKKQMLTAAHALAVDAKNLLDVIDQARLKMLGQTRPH
The target of series [29] is MAP kinase-activated protein kinase 2 (Homo sapiens, UniProt P49137). The series is described as follows: MAPKAPK2(MPK2LGRH) Takeda global kinase panel.
Series [30] has as its target 5'-AMP-activated protein kinase catalytic subunit alpha-1 (Homo sapiens, UniProt Q13131). The series is described as follows: AMPKalpha1(PRA1PGF1) Takeda global kinase panel.
Series [31] addresses Glycogen synthase kinase-3 alpha (Homo sapiens, UniProt P49840). The series is described as follows: GSK3alpha(GS3ALGK1) Takeda global kinase panel.
Series [32] has as its target Mitogen-activated protein kinase kinase kinase 2 (Homo sapiens, UniProt Q9Y2U5). As to the kind of experiment: MEKK2 [MAP3K2(M3K2LGF1)] Takeda global kinase panel.
Series [33] concerns the target L-type calcium channel, benzothiazepine site (Cav1.2 alpha-1C) (Homo sapiens, UniProt Q13936). As to the kind of experiment: Inhibition of Calcium Channel L-Type, Benzothiazepine at 10 µM in the Eurofins-Panlabs radioligand binding assay (Eurofins_assay_214510). To be noted: male, Wistar, rat, whole brain of rats, probe [3H] Diltiazem; compound concentration 10 uM; target entry is the homologue from another species. Further details: ligand concentration 2 nM, non-specific ligand with concentration 10 µM Diltiazem, incubation time 3h, incubation temperature 4 °C.

Series [34] deals with Cyclin-dependent kinase-like 1 (Homo sapiens, UniProt Q00532). The series is described as follows: CDKL1(CDL1LGT1) Takeda global kinase panel.
Series [35] addresses cAMP-dependent protein kinase catalytic subunit gamma (Homo sapiens, UniProt P22612). The series is described as follows: PKAgamma(PRCGLGY1) Takeda global kinase panel.
Series [36] deals with RAC-alpha serine/threonine-protein kinase (Homo sapiens, UniProt P31749). As to the kind of experiment: Akt1 [PKBalpha(AKT1PHFB)] Takeda global kinase panel.

Chain of Alpha-1D adrenergic receptor (Homo sapiens) (P25100 whole entry): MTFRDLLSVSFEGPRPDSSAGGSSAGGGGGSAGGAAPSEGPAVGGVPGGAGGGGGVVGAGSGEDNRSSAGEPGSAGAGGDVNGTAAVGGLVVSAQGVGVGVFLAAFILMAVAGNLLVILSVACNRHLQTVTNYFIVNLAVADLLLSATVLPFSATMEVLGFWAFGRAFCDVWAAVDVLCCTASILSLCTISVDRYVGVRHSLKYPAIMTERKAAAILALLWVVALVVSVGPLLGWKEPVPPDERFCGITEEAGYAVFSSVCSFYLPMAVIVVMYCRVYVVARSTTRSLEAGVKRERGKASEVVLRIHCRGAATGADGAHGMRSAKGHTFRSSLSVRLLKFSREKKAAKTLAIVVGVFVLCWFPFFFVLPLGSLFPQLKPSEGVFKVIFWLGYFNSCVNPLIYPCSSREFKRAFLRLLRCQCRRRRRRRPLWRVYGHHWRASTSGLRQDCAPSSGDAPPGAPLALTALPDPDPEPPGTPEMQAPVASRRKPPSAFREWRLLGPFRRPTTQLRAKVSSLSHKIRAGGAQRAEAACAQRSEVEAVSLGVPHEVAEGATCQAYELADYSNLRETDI
Chain of Mitogen-activated protein kinase kinase kinase 2 (Q9Y2U5 whole entry): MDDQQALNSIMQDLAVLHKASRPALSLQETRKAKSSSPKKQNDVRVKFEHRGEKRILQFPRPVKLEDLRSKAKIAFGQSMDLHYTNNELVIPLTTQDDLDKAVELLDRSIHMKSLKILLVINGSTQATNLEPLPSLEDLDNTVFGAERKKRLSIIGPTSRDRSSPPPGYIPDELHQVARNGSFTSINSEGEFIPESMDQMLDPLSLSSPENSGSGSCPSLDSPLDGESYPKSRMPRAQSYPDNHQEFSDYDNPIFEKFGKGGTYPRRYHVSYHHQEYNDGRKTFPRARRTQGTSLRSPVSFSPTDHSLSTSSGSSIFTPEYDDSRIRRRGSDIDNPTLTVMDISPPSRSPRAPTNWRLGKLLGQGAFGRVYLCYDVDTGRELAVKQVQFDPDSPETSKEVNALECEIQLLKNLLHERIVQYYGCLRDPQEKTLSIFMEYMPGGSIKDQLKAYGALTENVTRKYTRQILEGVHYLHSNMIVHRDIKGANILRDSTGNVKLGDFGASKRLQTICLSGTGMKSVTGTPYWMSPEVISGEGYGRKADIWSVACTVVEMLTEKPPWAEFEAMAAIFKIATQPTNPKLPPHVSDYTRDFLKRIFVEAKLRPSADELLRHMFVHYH
Chain of Calcium/calmodulin-dependent protein kinase type II subunit delta (Q13557 whole entry): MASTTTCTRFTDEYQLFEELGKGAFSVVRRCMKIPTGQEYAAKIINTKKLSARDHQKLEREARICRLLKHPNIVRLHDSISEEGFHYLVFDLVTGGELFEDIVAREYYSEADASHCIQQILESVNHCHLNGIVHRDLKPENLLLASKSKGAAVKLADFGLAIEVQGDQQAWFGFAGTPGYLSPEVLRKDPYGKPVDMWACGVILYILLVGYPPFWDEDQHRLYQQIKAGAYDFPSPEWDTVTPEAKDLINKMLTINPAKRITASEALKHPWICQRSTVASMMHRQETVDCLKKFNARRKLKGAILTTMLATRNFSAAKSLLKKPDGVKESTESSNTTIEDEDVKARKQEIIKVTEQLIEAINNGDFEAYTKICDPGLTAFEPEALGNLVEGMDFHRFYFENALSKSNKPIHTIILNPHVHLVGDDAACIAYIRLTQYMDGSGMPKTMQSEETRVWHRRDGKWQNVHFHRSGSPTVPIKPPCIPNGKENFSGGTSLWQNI
Chain of Fibroblast growth factor receptor 2 (P21802 whole entry): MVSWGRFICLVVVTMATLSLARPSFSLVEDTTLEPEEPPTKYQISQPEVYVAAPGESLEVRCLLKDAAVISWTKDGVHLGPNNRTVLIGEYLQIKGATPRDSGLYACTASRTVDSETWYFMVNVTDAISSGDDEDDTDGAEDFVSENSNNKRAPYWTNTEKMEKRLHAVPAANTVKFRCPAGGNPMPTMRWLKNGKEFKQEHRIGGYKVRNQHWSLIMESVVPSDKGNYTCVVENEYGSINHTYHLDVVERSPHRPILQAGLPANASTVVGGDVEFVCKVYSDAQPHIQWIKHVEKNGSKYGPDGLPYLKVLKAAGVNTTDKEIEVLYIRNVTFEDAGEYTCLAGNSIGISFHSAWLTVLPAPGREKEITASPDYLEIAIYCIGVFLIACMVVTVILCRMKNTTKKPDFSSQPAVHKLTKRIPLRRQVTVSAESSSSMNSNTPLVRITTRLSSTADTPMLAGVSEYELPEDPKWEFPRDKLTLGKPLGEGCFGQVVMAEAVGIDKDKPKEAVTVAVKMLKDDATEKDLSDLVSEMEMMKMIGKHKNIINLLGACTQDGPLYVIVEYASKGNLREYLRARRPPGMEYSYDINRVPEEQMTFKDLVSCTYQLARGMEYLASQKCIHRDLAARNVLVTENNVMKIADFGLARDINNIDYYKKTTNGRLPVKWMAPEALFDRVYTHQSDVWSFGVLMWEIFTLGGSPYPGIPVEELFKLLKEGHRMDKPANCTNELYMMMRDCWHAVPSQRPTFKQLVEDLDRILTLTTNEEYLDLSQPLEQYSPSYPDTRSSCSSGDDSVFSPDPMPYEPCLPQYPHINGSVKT
Chain of Delta-type opioid receptor (Homo sapiens) (P41143 whole entry): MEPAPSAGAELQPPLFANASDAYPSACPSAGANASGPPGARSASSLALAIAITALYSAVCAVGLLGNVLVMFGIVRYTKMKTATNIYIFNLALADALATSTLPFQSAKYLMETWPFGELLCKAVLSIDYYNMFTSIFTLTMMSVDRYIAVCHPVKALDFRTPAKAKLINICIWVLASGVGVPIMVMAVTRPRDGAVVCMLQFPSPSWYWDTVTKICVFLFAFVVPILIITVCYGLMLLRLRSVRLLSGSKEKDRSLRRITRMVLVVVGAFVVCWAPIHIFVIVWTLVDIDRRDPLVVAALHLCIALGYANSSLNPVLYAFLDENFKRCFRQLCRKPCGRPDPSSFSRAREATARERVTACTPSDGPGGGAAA

`CN1C(=O)[C@@H](N2CCc3cn(Cc4ccccc4)nc3C2=O)COc2ccccc21` [TP-030-1]: the inhibition is 28.8% in series [1]; 9.8% in [2]; 6% in [3]; 11.9% in [4]; -8% in series [5]; 3.8% in series [6]. For the same compound, the inhibition in [7] is -7%; in series [8], -4.37%; in [10] it was -3.95%; in [11] it was -0.3%; in series [12] it was 17.4%; in [13], 7%. The inhibition was 5.99% in series [14] and -8% in series [15]. The Ki in series [9] was determined as 375 nM. Besides, the pKi in series [9] worked out at 6.425.

With `CN1C(=O)[C@@H](N2CCc3cn(CC4CCS(=O)(=O)CC4)nc3C2=O)COc2ccccc21` [TP-030n], the IC50 in series [16], in series [17], in series [18], in series [19], in [20] and in [21] was 1000 nM in each case. Besides, the IC50 in series [22], in [24], in series [25], in [26], in series [27] and in series [28] was 1000 nM in each case. In addition, the IC50 in series [29], in [30], in series [31], in [32], in series [34] and in series [35] was 1000 nM in each case. For the same compound, half-maximal inhibition in series [36] (IC50) was put at 1000 nM. In [23], the inhibition at 60 min, 10 µM is reported as 9% (not active). The inhibition at 3 h, 10 µM in series [33] is given as 2% (not active).

The inhibition is the drop in the measured response relative to a control, in per cent. For orientation: Ki means a dissociation constant, usually derived from enzyme kinetics or from competition with a known ligand. The term pKi denotes the negative decadic logarithm of the Ki, by convention in mol/L. As usually defined, the IC50 is the midpoint of a concentration-inhibition curve.
